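Test compounds were applied to cells in 96-well plates for 48 hours at 5 doses. GI50 marks 50% less growth. TGI is the concentration that stops growth completely.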
Assays:
Assay in all cases: NCI-60 cell line screen, 48 h
[1] = test system: SK-OV-3 ovarian
[2] = test system: RPMI-8226 leukemia
[3] = test system: HL-60(TB) leukemia
[4] = test system: OVCAR-3 ovarian
[5] = test system: A549 NSCLC
[6] = test system: SR leukemia
[7] = test system: ACHN renal
[8] = test system: HT29 colon
[9] = test system: NCI-H522 lung
[10] = test system: SK-MEL-28 melanoma
[11] = test system: K-562 leukemia
[12] = test system: SNB-75 CNS
[13] = test system: HS 578T breast
[14] = test system: EKVX NSCLC
[15] = test system: HCC-2998 colon
[16] = test system: UO-31 renal
[17] = test system: KM12 colon
[18] = test system: SF-539 CNS
[19] = test system: SF-268 CNS
[20] = test system: SN12C renal
[21] = test system: UACC-62 melanoma
[22] = test system: SK-MEL-2 melanoma
[23] = test system: MOLT-4 leukemia
[24] = test system: MALME-3M melanoma
[25] = test system: SF-295 CNS
[26] = test system: TK-10 renal
[27] = test system: M14 melanoma
[28] = test system: NCI-H226 lung
[29] = test system: NCI-H460 lung
[30] = test system: NCI-H23 lung
[31] = test system: PC-3 prostate
[32] = test system: MDA-MB-435
[33] = test system: UACC-257 melanoma
[34] = test system: RXF 393 renal
[35] = test system: SNB-19 CNS
[36] = test system: SW-620 colon
[37] = test system: U251 CNS
[38] = test system: NCI/ADR-RES ovarian
[39] = test system: OVCAR-5 ovarian
[40] = test system: HCT-15 colon
[41] = test system: OVCAR-4 ovarian
[42] = test system: SK-MEL-5 melanoma
[43] = test system: IGROV1 ovarian
[44] = test system: MCF7 breast
[45] = test system: CCRF-CEM leukemia
[46] = test system: 786-0 renal
[47] = test system: HOP-62 NSCLC
[48] = test system: LOX IMVI melanoma
[49] = test system: OVCAR-8 ovarian
[50] = test system: BT-549 breast
[51] = test system: CAKI-1 renal
[52] = test system: COLO 205 colon
[53] = test system: HCT-116 colon
[54] = test system: MDA-MB-231 breast
[55] = test system: DU-145 prostate
[56] = test system: A498 renal

OCCCC(O)(c1ccccc1)c1ccccc1
TGI [1]: > 100 µM | TGI [2]: > 100 µM | TGI [3]: > 100 µM | TGI [4]: > 100 µM | TGI [5]: > 100 µM | TGI [6]: > 100 µM | TGI [7]: > 100 µM | TGI [8]: > 100 µM | TGI [9]: > 100 µM | TGI [10]: > 100 µM | TGI [11]: > 100 µM | TGI [12]: > 100 µM | TGI [13]: > 100 µM | TGI [14]: > 100 µM | TGI [15]: > 100 µM | TGI [16]: > 100 µM | TGI [17]: > 100 µM | TGI [18]: > 100 µM | TGI [19]: > 100 µM | TGI [20]: > 100 µM | TGI [21]: > 100 µM | TGI [22]: > 100 µM | TGI [23]: > 100 µM | TGI [24]: > 100 µM | TGI [25]: > 100 µM | TGI [26]: > 100 µM | TGI [27]: > 100 µM | TGI [28]: > 100 µM | TGI [29]: > 100 µM | TGI [30]: > 100 µM | TGI [31]: > 100 µM | TGI [32]: > 100 µM | TGI [33]: > 100 µM | TGI [34]: > 100 µM | TGI [35]: > 100 µM | TGI [36]: > 100 µM | TGI [37]: > 100 µM | TGI [38]: > 100 µM | TGI [39]: > 100 µM | TGI [40]: > 100 µM | TGI [41]: > 100 µM | TGI [42]: > 100 µM | TGI [43]: > 100 µM | TGI [44]: > 100 µM | TGI [45]: > 100 µM | TGI [46]: > 100 µM | TGI [47]: > 100 µM | TGI [48]: > 100 µM | TGI [49]: > 100 µM | TGI [50]: > 100 µM

COC1=CC(=O)N(C(=O)C2CSC(C(CO)NC(=O)c3csc(/C=N/O)n3)=N2)C1 (configuration not stated)
TGI [1]: > 100 µM | TGI [2]: > 100 µM | TGI [3]: > 100 µM | TGI [4]: > 100 µM | TGI [51]: > 100 µM | TGI [6]: > 100 µM | TGI [7]: > 100 µM | TGI [8]: > 100 µM | TGI [10]: > 100 µM | TGI [11]: > 100 µM | TGI [52]: > 100 µM | TGI [12]: 91 µM | TGI [13]: > 100 µM | TGI [14]: > 100 µM | TGI [17]: > 100 µM | TGI [18]: > 100 µM | TGI [19]: > 100 µM | TGI [20]: > 100 µM | TGI [21]: > 100 µM | TGI [22]: > 100 µM | TGI [53]: > 100 µM | TGI [23]: > 100 µM | TGI [54]: > 100 µM | TGI [24]: > 100 µM | TGI [25]: > 100 µM | TGI [26]: > 100 µM | TGI [55]: > 100 µM | TGI [27]: > 100 µM | TGI [28]: > 100 µM | TGI [29]: > 100 µM | TGI [30]: > 100 µM | TGI [31]: > 100 µM | TGI [32]: > 100 µM | TGI [56]: > 100 µM | TGI [33]: > 100 µM | TGI [35]: > 100 µM | TGI [36]: > 100 µM | TGI [38]: > 100 µM | TGI [39]: > 100 µM | TGI [40]: > 100 µM | TGI [42]: > 100 µM | TGI [43]: > 100 µM | TGI [44]: > 100 µM | TGI [45]: > 100 µM | TGI [46]: > 100 µM | TGI [47]: > 100 µM | TGI [48]: > 100 µM | TGI [49]: > 100 µM | TGI [50]: > 100 µM

COc1ccc2cc(C#Cc3ccc(-n4c(/C=C/c5cc(OC)c(OC)c(OC)c5)nc5ccccc5c4=O)c(C)c3)ccc2c1
GI50 [1]: > 100 µM | TGI [1]: > 100 µM | GI50 [2]: 0.821 µM | TGI [2]: > 100 µM | GI50 [3]: 0.686 µM | TGI [3]: > 100 µM | GI50 [4]: 19.3 µM | TGI [4]: > 100 µM | GI50 [5]: > 100 µM | TGI [5]: > 100 µM | GI50 [51]: 4.91 µM | TGI [51]: > 100 µM | GI50 [6]: 0.395 µM | TGI [6]: > 100 µM | GI50 [7]: > 100 µM | TGI [7]: > 100 µM | GI50 [8]: 3.41 µM | TGI [8]: > 100 µM | GI50 [9]: > 100 µM | TGI [9]: > 100 µM | GI50 [10]: > 100 µM | TGI [10]: > 100 µM | GI50 [11]: 0.882 µM | TGI [11]: > 100 µM | GI50 [52]: 6.96 µM | TGI [52]: > 100 µM | GI50 [12]: > 100 µM | TGI [12]: > 100 µM | GI50 [13]: > 100 µM | TGI [13]: > 100 µM | GI50 [14]: 24.1 µM | TGI [14]: > 100 µM | GI50 [15]: > 100 µM | TGI [15]: > 100 µM | GI50 [16]: > 100 µM | TGI [16]: > 100 µM | GI50 [17]: 4.3 µM | TGI [17]: > 100 µM | GI50 [18]: > 100 µM | TGI [18]: > 100 µM | GI50 [19]: > 100 µM | TGI [19]: > 100 µM | GI50 [20]: > 100 µM | TGI [20]: > 100 µM | GI50 [21]: 2.19 µM | TGI [21]: > 100 µM | GI50 [22]: > 100 µM | TGI [22]: > 100 µM | GI50 [53]: 3.53 µM | TGI [53]: > 100 µM | GI50 [23]: 4.66 µM | TGI [23]: > 100 µM | GI50 [54]: 37 µM | TGI [54]: > 100 µM | GI50 [24]: 42.6 µM | TGI [24]: > 100 µM | GI50 [25]: > 100 µM | TGI [25]: > 100 µM | GI50 [26]: > 100 µM | TGI [26]: > 100 µM | GI50 [55]: > 100 µM | TGI [55]: > 100 µM | GI50 [27]: 12.7 µM | TGI [27]: > 100 µM | GI50 [28]: > 100 µM | TGI [28]: > 100 µM | GI50 [29]: 2.48 µM | TGI [29]: > 100 µM | GI50 [30]: 40.5 µM | TGI [30]: > 100 µM | GI50 [32]: > 100 µM | TGI [32]: > 100 µM | GI50 [56]: > 100 µM | TGI [56]: > 100 µM | GI50 [33]: 6.24 µM | TGI [33]: > 100 µM | GI50 [34]: > 100 µM | TGI [34]: > 100 µM | GI50 [35]: > 100 µM | TGI [35]: > 100 µM | GI50 [36]: 17.2 µM | TGI [36]: > 100 µM | GI50 [37]: 7.4 µM | TGI [37]: > 100 µM | GI50 [38]: > 100 µM | TGI [38]: > 100 µM | GI50 [39]: > 100 µM | TGI [39]: > 100 µM | GI50 [40]: 1.22 µM | TGI [40]: > 100 µM | GI50 [41]: > 100 µM | TGI [41]: > 100 µM | GI50 [42]: 1.85 µM | TGI [42]: > 100 µM | GI50 [43]: > 100 µM | TGI [43]: > 100 µM | GI50 [44]: 63.8 µM | TGI [44]: > 100 µM | GI50 [45]: > 100 µM | TGI [45]: > 100 µM | GI50 [46]: > 100 µM | TGI [46]: > 100 µM | GI50 [47]: > 100 µM | TGI [47]: > 100 µM | GI50 [48]: 5.94 µM | TGI [48]: > 100 µM | GI50 [49]: > 100 µM | TGI [49]: > 100 µM
